Measurements reported in US20100150890A1, “MEDICINAL COMPOSITION, FOOD OR DRINK HAVING EFFECT OF ENHANCING SYMPATHETIC NERVOUS ACTIVITY” (SUNTORY HOLDINGS LIMITED, priority 2005, published 2010).

Assays:
Type in all cases: in vivo
[1] = test system: epididymal white adipose tissue sympathetic nervous activity; assay: Rat epididymal white adipose tissue sympathetic nervous activity after transduodenal administration; settings: transduodenal administration 10 μg, single rat, FIG. 7
[2] = test system: kidney sympathetic nervous activity; assay: Rat kidney sympathetic nervous activity after transduodenal administration; settings: urethane-anesthetized male rat, transduodenal 10 μg/2 ml per animal, vs physiological saline control; FIG. 3
Description: (§1) In these experiments, use was made of male Mister rats weighing about 300 g which had been fed in a thermostatic chamber (24° C.) with a light-dark cycle of 12-hour intervals (under illumination from 8:00 to 20:00) for 1 week or longer. A single rat was employed for each nervous experiment. The animals were fed with a feed (Oriental Yeast, MF) and water ad libitum. The autonomic nervous activity were examined by fasting the rats for 3 hours on the day of the experiment and then subjecting to an abdominal surgery under urethane-anesthesia at the intermediate point of the light period. Then, the effects of the transduodenal administration of 2,3-dihydro-3,5-dihydroxy-6-methyl-4H-pyran-4-one obtained in Example 1 on the kidney sympathetic nervous activity, stomach vagal (parasympathetic) nervous activity and blood pressure were measured in accordance with the method reported by T. Yamano et al., Neurosci. […] A cannula was inserted into the left femoral artery and then the blood pressure was measured by use of a transducer. […] Electrical nervous activity thus obtained were amplified with a condenser type differential amplifier, monitored with an oscilloscope and recorded on a magnetic tape. […] The data was analyzed based on the average discharge frequency per 5 seconds (pulse/5 sec) and expressed as a percentage by referring to the level before the administration as to 100%. […]

[3] = test system: interscapular brown adipose tissue sympathetic nervous activity; assay: Rat interscapular brown adipose tissue sympathetic nervous activity after transduodenal administration; settings: transduodenal administration 10 μg, single rat, FIG. 6
[4] = Rat oxygen consumption (energy metabolism) after forced oral administration; settings: male SD rats fasted 16 hours, 40 μg/8 ml/kg body weight forced oral, within 60 minutes after administration, 5 rats per group; FIG. 8
Description: Male SD rats aged 7 weeks were preliminarily fed with a solid feed (CE-2: NIPPON CREA) and water ad libitum for 1 week for the habituation to the light-dark cycle of 12-hour intervals. The thus habituated animals were fasted for 16 hours before the administration of the samples and then divided into two groups. Then, 40 μg/8 ml/kg body weight of DDMP and 8 ml/kg body weight of distilled water for injection were forcibly orally administered into the stomach to the respective groups. Within 60 minutes following the administration, oxygen consumption was measured with a metabolic meter for small animals (MK-5000RQ2: manufactured by MUROMACHI KIKAI Co., Ltd.). A combination of a DDMP-administered rat with a water-administered rat was referred to as a single experimental lot and the averages of five combinations (i.e., a DDMP-administered group having 5 rats and a water-administered group having 5 rats) were calculated.

[5] = test system: stomach vagal (parasympathetic) nervous activity; assay: Rat stomach vagal (parasympathetic) nervous activity after transduodenal administration; settings: urethane-anesthetized male rat, transduodenal 10 μg/2 ml per animal, vs physiological saline control; FIG. 5
Description: as §1

[6] = Rat blood pressure after transduodenal administration (left femoral artery cannula, transducer); settings: urethane-anesthetized male rat, transduodenal 10 μg/2 ml per animal, vs physiological saline control; FIG. 4
Description: as §1

CC1=C(O)C(=O)C(O)CO1 (stereo not drawn) [DDMP, 2,3-Dihydro-3,5-dihydroxy-6-methyl-4H-pyran-4-one]
epididymal white adipose tissue sympathetic nervous activity [1]: enhanced | kidney sympathetic nervous activity (discharge frequency vs level before administration) [2]: enhanced | interscapular brown adipose tissue sympathetic nervous activity [3]: enhanced | oxygen consumption compared with the water-administered group [4]: increase in oxygen consumption | stomach vagal (parasympathetic) nervous activity [5]: reduced | blood pressure [6]: not elevated
